# Test results published in ChEMBL document CHEMBL1201862, “PubChem BioAssay data set” (2004).
#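 Results reflect a 48-hour exposure of cells in 96-well plates to compound at five concentrations. At the GI50, growth is halved.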 Active and inactive are the calls of the source. Cut-off read from the data, not from the text of the source: active = GI50 up to about 1.1 µM and inactive = higher.
# How the values were obtained:
# Assay in all cases: NCI anticancer screen, dose series, 48 h
# UO-31 = test system: UO-31
# MCF7 = test system: MCF7
# NCI/ADR-RES = test system: NCI/ADR-RES
# HCT-15 = test system: HCT-15
# A498 = test system: A498
# PC-3 = test system: PC-3
# HT-29 = test system: HT-29
# K562 = test system: K562
# T47D = test system: T47D
# NCI-H23 = test system: NCI-H23
# SK-MEL-5 = test system: SK-MEL-5
# MOLT-4 = test system: MOLT-4
# SK-MEL-28 = test system: SK-MEL-28
# Malme-3M = test system: Malme-3M
# OVCAR-3 = test system: OVCAR-3
# UACC-62 = test system: UACC-62
# ACHN = test system: ACHN
# SW-620 = test system: SW-620
# COLO 205 = test system: COLO 205
# SK-OV-3 = test system: SK-OV-3
# U-251 = test system: U-251
# SF-268 = test system: SF-268
# 786-0 = test system: 786-0
# RPMI-8226 = test system: RPMI-8226
# TK-10 = test system: TK-10
# MDA-N = test system: MDA-N
# SK-MEL-2 = test system: SK-MEL-2
# NCI-H460 = test system: NCI-H460
# UACC-257 = test system: UACC-257
# LOX IMVI = test system: LOX IMVI
# DU-145 = test system: DU-145
# OVCAR-8 = test system: OVCAR-8
# SNB-75 = test system: SNB-75
# SR = test system: SR
# M14 = test system: M14
# MDA-MB-231 = test system: MDA-MB-231
# EKVX = test system: EKVX
# Hs-578T = test system: Hs-578T
# SF-295 = test system: SF-295
# SN12C = test system: SN12C
# BT-549 = test system: BT-549
# HOP-62 = test system: HOP-62
# HCC 2998 = test system: HCC 2998
# KM12 = test system: KM12
# HCT-116 = test system: HCT-116
# SF-539 = test system: SF-539
# OVCAR-5 = test system: OVCAR-5
# A549 = test system: A549
# SNB-19 = test system: SNB-19
# IGROV-1 = test system: IGROV-1
# MDA-MB-435 = test system: MDA-MB-435
# OVCAR-4 = test system: OVCAR-4
smiles,measurement,setting,value
c1cc2cc(c1)CN1CCNCCN(CCNCC1)Cc1cccc(c1)CN1CCNCCN(CCNCC1)C2,GI50,UO-31,> 100 µM (inactive)
same,GI50,MCF7,> 100 µM (inactive)
same,GI50,NCI/ADR-RES,> 100 µM (inactive)
same,GI50,HCT-15,> 100 µM
same,GI50,A498,> 100 µM (inactive)
same,GI50,PC-3,> 100 µM (inactive)
same,GI50,HT-29,> 100 µM (inactive)
same,GI50,K562,> 100 µM (inactive)
same,GI50,T47D,> 100 µM (inactive)
same,GI50,NCI-H23,> 100 µM (inactive)
same,GI50,SK-MEL-5,> 100 µM (inactive)
same,GI50,MOLT-4,> 100 µM (inactive)
same,GI50,SK-MEL-28,> 100 µM (inactive)
same,GI50,Malme-3M,> 100 µM (inactive)
same,GI50,OVCAR-3,> 100 µM (inactive)
same,GI50,UACC-62,> 100 µM (inactive)
same,GI50,ACHN,> 100 µM (inactive)
same,GI50,SW-620,> 100 µM (inactive)
same,GI50,COLO 205,> 100 µM (inactive)
same,GI50,SK-OV-3,> 100 µM (inactive)
same,GI50,U-251,> 100 µM (inactive)
same,GI50,SF-268,> 100 µM (inactive)
same,GI50,786-0,> 100 µM (inactive)
same,GI50,RPMI-8226,> 100 µM (inactive)
same,GI50,TK-10,> 100 µM (inactive)
same,GI50,MDA-N,> 100 µM (inactive)
same,GI50,SK-MEL-2,> 100 µM (inactive)
same,GI50,NCI-H460,> 100 µM (inactive)
same,GI50,UACC-257,> 100 µM (inactive)
same,GI50,LOX IMVI,> 100 µM (inactive)
same,GI50,DU-145,> 100 µM (inactive)
same,GI50,OVCAR-8,> 100 µM (inactive)
same,GI50,SNB-75,> 100 µM (inactive)
same,GI50,SR,78 µM (inactive)
same,GI50,M14,> 100 µM (inactive)
same,GI50,MDA-MB-231,> 100 µM (inactive)
same,GI50,EKVX,> 100 µM (inactive)
same,GI50,Hs-578T,> 100 µM (inactive)
same,GI50,SF-295,> 100 µM (inactive)
same,GI50,SN12C,> 100 µM (inactive)
same,GI50,BT-549,> 100 µM (inactive)
same,GI50,HOP-62,> 100 µM (inactive)
same,GI50,HCC 2998,> 100 µM (inactive)
same,GI50,KM12,> 100 µM (inactive)
same,GI50,HCT-116,> 100 µM (inactive)
same,GI50,SF-539,> 100 µM (inactive)
same,GI50,OVCAR-5,> 100 µM (inactive)
same,GI50,A549,> 100 µM (inactive)
same,GI50,SNB-19,> 100 µM (inactive)
same,GI50,IGROV-1,> 100 µM (inactive)
same,GI50,MDA-MB-435,> 100 µM (inactive)
same,GI50,OVCAR-4,> 100 µM (inactive)
